Among the data in patent US20190375708A1 (VenatoRx Pharmaceuticals, Inc., priority 2018, published 2019) are CC50 and EC50 values, retold here.

The nature of series [1]: In vitro cytotoxicity assay (MTT cell viability) in HepG2 cells. The format is cell-based, human. Conditions: human. The method in brief:
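Using MTT conversion as the viability measure, HepG2 cells were incubated with compounds for 7 days (30 μM to 1.0 nM). Absorbance at 492 nm was normalized to vehicle and fitted to give CC50.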

For series [2], the system named is HBV replication in HepAD38 cells. In words: Anti-HBV replication assay in HepAD38 cells (QPCR of extracellular HBV DNA). Conditions: Hepatitis B virus, 168 h, 7 days incubation, extracellular HBV DNA by QPCR, read-out: Anti-HBV EC50. It is filed as cell-based, HBV (genotype D, serotype ayw). The method in brief: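 Read-out is QPCR of HBV DNA released into culture supernatant, converted to percent of vehicle control and fitted to give EC50. Cells were HepAD38 induced by tetracycline removal and dosed […] for 7 days.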

Each structure is given as a SMILES string.

The term CC50 denotes the concentration at which the toxic effect on the cells reaches its halfway point. Broadly, the EC50 is the concentration needed to bring the measured effect to its halfway point. On to `Cc1cc(NC(=O)c2cc(C(=O)C(=O)NC3(C)COC3)n3c2CCCC3)ccc1F` [Example 405, N-(4-fluoro-3-metthylphenyl)-3-(2-((3-methyloxetan-3-yl)amino)-2-oxoacetyl)-5,6,7,8-tetrahydroindolizine-1-carboxamide], for which, in series [1], the 50% cytotoxic concentration (CC50) at 7 days was over 30000 nM. The EC50 in series [2] lay within 50 to 499 nM.

The compound `Cc1cc(NC(=O)c2cc(C(=O)C(=O)NC(C)(C)C(N)=O)n3c2CCCC3)ccc1F` [Example 406] had a half-maximal cytotoxic concentration (CC50) at 7 days in series [1] of over 30000 nM. For the same compound, the concentration for a half-maximal effect (EC50) in series [2] is 500 to 1000 nM.

In series [1], `Cc1cc(NC(=O)c2cc(C(=O)C(=O)N[C@@H](C)C(F)(F)F)n3c2CCCC3)ccc1F` [Example 407, (S)-N-(4-fluoro-3-methylphenyl)-3-(2-oxo-2-((1,1,1-trifluoropropan-2-yl)amino)acetyl)-5,6,7,78-tetrahydroindolizine-1-carboxamide] came in with a cytotoxic concentration (CC50) at 7 days of over 30000 nM. Moreover, the EC50 in series [2] was 50 to 499 nM.

Turning to `Cc1cc(NC(=O)c2cc(C(=O)C(=O)N[C@H](C)C(F)(F)F)n3c2CCCC3)ccc1F` [Example 408, (R)-N-(4-fluoro-3-methylphenyl)-3-(2-oxo-2-((1,1,1-trifluoropropan-2-yl)amino)acetyl)-5,6,7,8-tetrahydroindolizine-1-carboxamide], in series [1], the CC50 at 7 days is over 30000 nM. The EC50 in series [2] lay in the range of 50 to 499 nM.

Consider `Cc1cc(NC(=O)c2cc(C(=O)C(=O)NC(C)(C)C(F)(F)F)n3c2CCCC3)ccc1F` [Example 409, N-(4-fluoro-3-methylphenyl)-3-(2-oxo-2-((1,1,1-trifluoro-2-methylpropan-2-yl)amino)acetyl)-5,6,7,8-tetrahydroindolizine-1-carboxamide], for which, in series [1], the cytotoxic concentration (CC50) at 7 days is over 30000 nM. Also, the half-maximal effective concentration (EC50) in series [2] was 50 to 499 nM.

For `Cc1cc(NC(=O)c2cc(C(=O)C(=O)NC3(CO)CCC3)n3c2CCCC3)ccc1F` [Example 410, N-(4-fluoro-3-methylphenyl)-3-(2-((1-(hydroxymethyl)cyclobutyl)amino)-2-oxoacetyl)-5,6,7,8-tetrahydroindolizine-1-carboxamide], in series [1], the CC50 at 7 days is over 30000 nM. Further, in series [2], the concentration giving a half-maximal response (EC50) is 50 to 499 nM.

In series [1], `Cc1cc(NC(=O)c2cc(C(=O)C(=O)NC(C)(C)CO)n3c2CCCC3)ccc1F` [Example 411, N-(4-fluoro-3-methylphenyl)-3-(2-((1-hydroxy-2-methylpropan-2-yl)amino)-2-oxoacetyl)-5,6,7,8-tetrahydroindolixzine-1-carboxamide] yielded a CC50 at 7 days of over 30000 nM. Further, the EC50 in series [2] fell in the range of 50 to 499 nM.

In the case of `Cc1cc(NC(=O)c2cc(C(=O)C(=O)NC(C)C)n3c2CCCC3)ccc1F` [Example 412, N-(4-fluoro-3-methylphenyl)-3-(2-(isopropylamino)-2-oxoacetyl)-5,6,7,8-tetrahydroindolizine-1-carboxamide], the CC50 at 7 days in series [1] was in the range of 5000 to 30000 nM. In series [2], the 50% effective concentration (EC50) was 50 to 499 nM.

Compound `Cc1cnc(C(C)(C)NC(=O)C(=O)c2cc(C(=O)Nc3ccc(F)c(C)c3)c3n2CCCC3)s1` [Example 413, N-(4-fluoro-3-methylphenyl)-3-(2-((2-(5-methylthiazol-2-yl)propan-2-yl)amino)-2-oxoacetyl)-5,6,7,8-tetrahydroindolizine-1-carboxamide] gave a CC50 at 7 days in series [1] of over 30000 nM. Further, the half-maximal effective concentration (EC50) in series [2] fell in the range of 50 to 499 nM.

For the compound `Cc1noc(C(C)NC(=O)C(=O)c2cc(C(=O)Nc3ccc(F)c(C)c3)c3n2CCCC3)n1` (centres unmarked) [Example 414, N-(4-fluoro-3-methylphenyl)-3-(2-((1-(3-cmethyl-1,2,4-oxadiazol-5-yl)ethyl)amino)-2-oxoacetyl)-5,6,7,8-tetrahydroindolizine-1-carboxamide], the CC50 at 7 days in series [1] was over 30000 nM. The EC50 in series [2] fell in the range of 50 to 499 nM.

On to `Cc1cc(NC(=O)c2cc(C(=O)C(=O)NC[C@@H](O)CO)n3c2CCCC3)ccc1F` [Example 415, (R)-3-(2-((2,3-dihydroxypropyl)amino)-2-oxoacetyl)-N-(4-fluoro-3-methylphenyl)-5,6,7,8-tetrahydroindolizine-1-carboxamide], for which the CC50 at 7 days in series [1] is over 30000 nM. Moreover, the EC50 in series [2] is over 1000 nM.

`Cc1cc(NC(=O)c2cc(C(=O)C(=O)NC[C@H](O)CO)n3c2CCCC3)ccc1F` [Example 416, (S)-3-(2-((2,3-dihydroxypropyl)amino)-2-oxoacetyl)-N-(4-fluoro-3-methylphenyl)-5,6,7,8-tetrahydroindolizine-1-carboxamide] displayed a cytotoxic concentration (CC50) at 7 days in series [1] of over 30000 nM. In addition, the concentration giving a half-maximal response (EC50) in series [2] is over 1000 nM.

For `Cc1cc(NC(=O)c2cc(C(=O)C(=O)N[C@@H](CO)[C@H](C)O)n3c2CCCC3)ccc1F` [Example 417, 3-(2-(((2S,3S)-1,3-dihydroxybutan-2-yl)amino)-2-oxoacetyl)-N-(4-fluoro-3-methylphenyl)-5,6,7,8-tetrahydroindolizine-1-carboxamide], the CC50 at 7 days in series [1] is over 30000 nM. For the same compound, in series [2], the EC50 was in the range of 50 to 499 nM.

Turning to `Cc1noc(C2(NC(=O)C(=O)c3cc(C(=O)Nc4ccc(F)c(C)c4)c4n3CCCC4)CC2)n1` [Example 418, N-(4-fluoro-3-methylphenyl)-3-(2-((1-(3-methyl-1,2,4-oxadiazol-5-yl)cyclopropyl)amino)-2-oxoacetyl)-5,6,7,8-tetrahydroidolizine-1-carboxamide], in series [1], the 50% cytotoxic concentration (CC50) at 7 days was over 30000 nM. Moreover, the EC50 in series [2] fell in the range of 50 to 499 nM.

Regarding `Cc1cc(NC(=O)c2cc(C(=O)C(=O)NCC(C)(C)O)n3c2CCCC3)ccc1F` [Example 419, N-(4-fluoro-3-methylphenyl)-3-(2-((2-hydroxy-2-methylpropyl)amino)-2-oxoacetyl)-5,6,7,8-tetrahydroindolizine-1-carboxamide], the CC50 at 7 days in series [1] is over 30000 nM. Further, in series [2], the EC50 was over 1000 nM.

In series [1], `Cc1cc(NC(=O)c2cc(C(=O)C(=O)NC3(CO)CC3)n3c2CCCC3)ccc1F` [Example 420, N-(4-fluoro-3-methylphenyl)-3-(2-((1-(hydroxymethyl)cyclopropyl)amino)-2-oxoacetyl)-5,6,7,8-tetrahydroindolizine-1-carboxamide] registered a cytotoxic concentration (CC50) at 7 days of over 30000 nM. In series [2], the EC50 was 50 to 499 nM.

`Cc1cc(NC(=O)c2cc(C(=O)C(=O)N3CCc4nc(N)sc4C3)n3c2CCCC3)ccc1F` [Example 421, 3-(2-(2-amino-6,7-dihydrothiazolo[5,4-c]pyridin-5(4H)-yl)-2-oxoacetyl)-N-(4-fluoro-3-methylphenyl)-5,6,7,8-tetrahydroindolizine-1-carboxamide] displayed a CC50 at 7 days in series [1] of over 30000 nM. In addition, in series [2], the concentration for a half-maximal effect (EC50) is over 1000 nM.

`Cc1cc(NC(=O)c2cc(C(=O)C(=O)N[C@@H](C(=O)O)C(C)(C)C)n3c2CCCC3)ccc1F` [Example 422, (R)-2-(2-(1-((4-fluoro-3-methylphenyl)carbamoyl)-5,6,7,8-tetrahydroindolizin-3-yl)-2-oxoacetamido)-3,3-dimethylbutanoic acid] yielded a CC50 at 7 days in series [1] of over 30000 nM. In series [2], the concentration giving a half-maximal response (EC50) is over 1000 nM.

For the compound `CC(C)(CO)NC(=O)C(=O)c1cc(C(=O)Nc2cc(F)c(F)c(F)c2)c2n1CCCC2` [Example 424, 3-(2-((1-hydroxy-2-methylpropan-2-yl)amino)-2-oxoacetyl)-N-(3,4,5-trifluorophenyl)-5,6,7,8-tetrahydroindolizine-1-carboxamide], the 50% cytotoxic concentration (CC50) at 7 days in series [1] was over 30000 nM. The EC50 in series [2] was 50 to 499 nM.

For the compound `Cc1cc(NC(=O)c2cc(C(=O)C(=O)NC(C)(C)CO)n3c2CCCC3)cc(F)c1F` [Example 425, N-(3,4-difluoro-5-methylphenyl)-3-(2-((1-hydroxy-2-methylpropan-2-yl)amino)-2-oxoacetyl)-5,6,7,8-tetrahydroindolizine-1-carboxamide], in series [1], the CC50 at 7 days was over 30000 nM. Moreover, the EC50 in series [2] was in the range of 50 to 499 nM.

The compound `CC(C)(CO)NC(=O)C(=O)c1cc(C(=O)Nc2ccc(F)c(F)c2)c2n1CCCC2` [Example 426, N-(3,4-difluorophenyl)-3-(2-((1-hydroxy-2-methylpropan-2-yl)amino)-2-oxoacetyl)-5,6,7,8-tetrahydroindolizine-1-carboxamide] showed a CC50 at 7 days in series [1] of over 30000 nM. For the same compound, the EC50 in series [2] lay within 50 to 499 nM.

Consider `CC(C)(CO)NC(=O)C(=O)c1cc(C(=O)Nc2ccc(F)c(Cl)c2)c2n1CCCC2` [Example 427, N-(3-chloro-4-fluorophenyl)-3-(2-((1-hydroxy-2-methylpropan-2-yl)amino)-2-oxoacetyl)-5,6,7,8-tetrahydroindolizine-1-carboxamide], for which the CC50 at 7 days in series [1] was over 30000 nM. The 50% effective concentration (EC50) in series [2] lay within 50 to 499 nM.

On to `Cc1cc(NC(=O)c2cc(C(=O)C(=O)N[C@H](C)C(C)(F)F)n3c2CCCC3)ccc1F` [Example 428, (R)-3-(2-((3,3-difluorobutan-2-yl)amino)-2-oxoacetyl)-N-(4-fluoro-3-methylphenyl)-5,6,7,8-tetrahydroindolizine--1 carboxamide], for which, in series [1], the cytotoxic concentration (CC50) at 7 days is over 30000 nM. In series [2], the EC50 lay in the range of 50 to 499 nM.

In the case of `CC(C)(CO)NC(=O)C(=O)c1cc(C(=O)Nc2ccc(F)c(C(F)F)c2)c2n1CCCC2` [Example 429, N-(3-(difluoromethyl)-4-fluorophenyl)-3-(2-((1-hydroxy-2-methylpropan-2-yl)amino)-2-oxoacetyl)-5,6,7,8-tetrahydroindolizine-1-carboxamide], the CC50 at 7 days in series [1] was over 30000 nM. The EC50 in series [2] was in the range of 50 to 499 nM.

Consider `Cc1noc([C@H](C)NC(=O)C(=O)c2cc(C(=O)Nc3ccc(F)c(C)c3)c3n2CCCC3)n1` [Example 430, (S)-N-(4-fluoro-3-methylphenyl)-3-(2-((1-(3-methyl-1,2,4-oxadiazol-5-yl)ethyl)amino)-2-oxoacetyl)-5,6,7,8-tetrahydroindolizine-1-carboxamide], for which the CC50 at 7 days in series [1] was over 30000 nM. In addition, in series [2], the EC50 lay in the range of 50 to 499 nM.
